# Source: patent publication US7786054B2, “Biocide for well stimulation and treatment fluids” (Kemira Chemicals, Inc., priority 2006, dated 2010)
# Entries after “also recorded” stand apart in the source; their conditions may differ.
# Legend:
# [1] = test system: sulfate reducing bacteria (SRB); assay: Biocidal effectiveness on sulfate reducing bacteria in spiked frac pond water, serial dilution counts over 180 days with challenges; type: cell-based
# Method: (§1) In this example, the biocidal effectiveness on sulfate reducing bacteria (SRB) and acid producing bacteria (AB) for biocide formulations containing CB Thione and WB Thione to Glut and THPS was examined.
# (§2) A one gallon sample was separated from a five gallon sample of frac pond water for these studies. The frac pond water sample included SRB and AB. Ten mL of a 10^9 cfu/mL inoculum of SRB grown in anaerobic API broth containing an O2 scavenger and 10 mL of a 10^9 cfu/mL inoculum of AB grown in anaerobic phenol red (anPR) broth containing an O2 scavenger were added to the one gallon frac pond water sample, mixed well and allowed to incubate for a period of time sufficient to achieve a desired number of SRB and AB. All broth media for inoculum and serial dilution counts in this study was made at 4% salinity to match the salinity of the original frac pond water measured by total dissolved solids testing. To increase nutrient value and to emulate on-site friction reducing additives, a 30 weight % acrylic acid, 70% acrylamide copolymer was added to the inoculated gallon of frac pond water sample at 300 ppm and then referred to as the spiked frac pond water sample. The spiked sample was then divided into 99.0 g aliquots for testing the effect of various biocides at various concentrations on the SRB and AB over a 180 day contact time. One spiked aliquot would serve as the control sample to which no biocide would be added. Challenges were made to all aliquots using 0.5 mL of 10^8 SRB and 0.5 mL, of 10^8 AB at 14, 28, and 129 days contact time.
# (§3) The biocides included a 20% water based Thione (WB Thione), a 24% caustic based Thione (CB Thione), a 25% Glut, and a 35% THPS. Stock biocide solutions of various concentrations were made from these biocides as described below.
# (§4) The WB Thione stock solutions were prepared by adding 3.0 g of the biocide to 17.0 g of sterile distilled water to form an intermediate solution, followed by combining each intermediate solution with water in the accounts shown in Table 1 below to make the descending concentrations as shown in Table 1.
# (§5) The CB Thione stock solutions were prepared by adding 3.0 g of the biocide to 17.0 g of sterile distilled water to form an intermediate solution, followed by combining each intermediate solution with water in the amounts shown in Table 2 below to make the descending concentrations as shown in Table 2.
# (§6) The Glut stock solutions were prepared by adding 1.0 g biocide to 19.0 g of sterile distilled water to form an intermediate solution, followed by combining each intermediate solution with water in the amounts shown in Table 3 below to make the descending concentrations as shown in Table 3.
# (§7) The THPS stock solutions were prepared by adding 1.0 g of the biocide to 19.0 g of sterile distilled water to form an intermediate solution, followed by combining each intermediate solution with water in the amounts shown in Table 4 below to make the descending concentrations as shown in Table 4.
# (§8) Next, 1 g of each biocide stock solution was added to the appropriately labeled 99.0 g aliquot. Also, 1.0 g of sterile water was added to the control aliquot. The concentrations of the biocides present in each aliquot are provided below in Table 5.
# (§9) The aliquots were then incubated at room temperature in the dark for the entire study, i.e., 6 months. […] Using sterile syringes, this testing was performed by serial diluting the aliquots into sealed 9.0 mL anaerobic API broth and anaerobic PR broth bottles, both media containing an O2 scavenger, in the appropriate labeled set of SRB bottles (6 for each aliquot) mid AB bottles (6 for each aliquot) until a color change occurred, indicating the log quantity of organisms present in each aliquot.
# [2] = test system: acid producing bacteria (AB); assay: Biocidal effectiveness on acid producing bacteria in spiked frac pond water, serial dilution counts over 180 days with challenges; type: cell-based
# Method: as §1, §2, §3, §4, §5, §6, §7, §8, §9
# [3] = 500 ppm as is (Glut, THPS), 7 Days
# [4] = 500 ppm as is (Glut, THPS), 14 Days
# [5] = 500 ppm as is (Glut, THPS), 21 Days
# [6] = 500 ppm as is (Glut, THPS), 28 Days
# [7] = 500 ppm as is (Glut, THPS), 35 Days
# [8] = 500 ppm as is (Glut, THPS), 42 Days
# [9] = 500 ppm as is (Glut, THPS), 58 Days
# [10] = 500 ppm as is (Glut, THPS), 90 Days
# [11] = up to 180 days contact time, challenges at 14, 28 and 129 days
smiles,measurement,setting,value
"O=S(=O)([O-])[O-].OC[P+](CO)(CO)CO.OC[P+](CO)(CO)CO [THPS, tetra-kis-hydroxymethyly-phosphonium sulfate]",Log 10 Anaerobic Sulfate Reducing Bacteria/mL,"[1]; 60 ppm as is (DA), 7 Days",≧6 Log 10 Bacteria/mL
same,Log 10 Anaerobic Sulfate Reducing Bacteria/mL,"[1]; 60 ppm as is (DA), 14 Days",≧6 Log 10 Bacteria/mL
same,Log 10 Anaerobic Sulfate Reducing Bacteria/mL,"[1]; 60 ppm as is (DA), 21 Days",≧5 Log 10 Bacteria/mL
same,Log 10 Anaerobic Sulfate Reducing Bacteria/mL,"[1]; 60 ppm as is (DA), 28 Days",≧6 Log 10 Bacteria/mL
same,Log 10 Anaerobic Sulfate Reducing Bacteria/mL,"[1]; 60 ppm as is (DA), 35 Days",≧6 Log 10 Bacteria/mL
same,Log 10 Anaerobic Sulfate Reducing Bacteria/mL,"[1]; 60 ppm as is (DA), 42 Days",≧6 Log 10 Bacteria/mL
same,Log 10 Anaerobic Sulfate Reducing Bacteria/mL,"[1]; 60 ppm as is (DA), 58 Days",≧6 Log 10 Bacteria/mL
same,Log 10 Anaerobic Sulfate Reducing Bacteria/mL,"[1]; 60 ppm as is (DA), 90 Days",≧6 Log 10 Bacteria/mL
same,Log 10 Anaerobic Sulfate Reducing Bacteria/mL,"[1]; 100 ppm as is, 7 Days",5 Log 10 Bacteria/mL
same,Log 10 Anaerobic Sulfate Reducing Bacteria/mL,"[1]; 100 ppm as is, 14 Days",5 Log 10 Bacteria/mL
same,Log 10 Anaerobic Sulfate Reducing Bacteria/mL,"[1]; 100 ppm as is, 21 Days",≧5 Log 10 Bacteria/mL
same,Log 10 Anaerobic Sulfate Reducing Bacteria/mL,"[1]; 100 ppm as is, 28 Days",≧6 Log 10 Bacteria/mL
same,Log 10 Anaerobic Sulfate Reducing Bacteria/mL,"[1]; 100 ppm as is, 35 Days",≧6 Log 10 Bacteria/mL
same,Log 10 Anaerobic Sulfate Reducing Bacteria/mL,"[1]; 100 ppm as is, 42 Days",≧6 Log 10 Bacteria/mL
same,Log 10 Anaerobic Sulfate Reducing Bacteria/mL,"[1]; 100 ppm as is, 58 Days",≧6 Log 10 Bacteria/mL
same,Log 10 Anaerobic Sulfate Reducing Bacteria/mL,"[1]; 100 ppm as is, 90 Days",≧6 Log 10 Bacteria/mL
same,Log 10 Anaerobic Sulfate Reducing Bacteria/mL,"[1]; 200 ppm as is, 7 Days",0 Log 10 Bacteria/mL
same,Log 10 Anaerobic Sulfate Reducing Bacteria/mL,"[1]; 200 ppm as is, 14 Days",0 Log 10 Bacteria/mL
same,Log 10 Anaerobic Sulfate Reducing Bacteria/mL,"[1]; 200 ppm as is, 21 Days",≧6 Log 10 Bacteria/mL
same,Log 10 Anaerobic Sulfate Reducing Bacteria/mL,"[1]; 200 ppm as is, 28 Days",≧6 Log 10 Bacteria/mL
same,Log 10 Anaerobic Sulfate Reducing Bacteria/mL,"[1]; 200 ppm as is, 35 Days",≧6 Log 10 Bacteria/mL
same,Log 10 Anaerobic Sulfate Reducing Bacteria/mL,"[1]; 200 ppm as is, 42 Days",≧6 Log 10 Bacteria/mL
same,Log 10 Anaerobic Sulfate Reducing Bacteria/mL,"[1]; 200 ppm as is, 58 Days",≧6 Log 10 Bacteria/mL
same,Log 10 Anaerobic Sulfate Reducing Bacteria/mL,"[1]; 200 ppm as is, 90 Days",≧6 Log 10 Bacteria/mL
same,Log 10 Anaerobic Sulfate Reducing Bacteria/mL,[1]; [3],0 Log 10 Bacteria/mL
same,Log 10 Anaerobic Sulfate Reducing Bacteria/mL,[1]; [4],0 Log 10 Bacteria/mL
same,Log 10 Anaerobic Sulfate Reducing Bacteria/mL,[1]; [5],4 Log 10 Bacteria/mL
same,Log 10 Anaerobic Sulfate Reducing Bacteria/mL,[1]; [6],3 Log 10 Bacteria/mL
same,Log 10 Anaerobic Sulfate Reducing Bacteria/mL,[1]; [7],3 Log 10 Bacteria/mL
same,Log 10 Anaerobic Sulfate Reducing Bacteria/mL,[1]; [8],≧6 Log 10 Bacteria/mL
same,Log 10 Anaerobic Sulfate Reducing Bacteria/mL,[1]; [9],≧6 Log 10 Bacteria/mL
same,Log 10 Anaerobic Sulfate Reducing Bacteria/mL,[1]; [10],≧6 Log 10 Bacteria/mL
same,control of SRB in frac pond water (summary in words),[1]; [11],lost all control of SRB and AB from 1 to 21 days contact time; also recorded: failed completely after challenging once at 14 days contact time at all concentrations
same,Log 10 Anaerobic Acid Producing Bacteria/mL,"[2]; 50 ppm as is, 7 Days",5 Log 10 Bacteria/mL
same,Log 10 Anaerobic Acid Producing Bacteria/mL,"[2]; 50 ppm as is, 14 Days",≧6 Log 10 Bacteria/mL
same,Log 10 Anaerobic Acid Producing Bacteria/mL,"[2]; 50 ppm as is, 21 Days",≧6 Log 10 Bacteria/mL
same,Log 10 Anaerobic Acid Producing Bacteria/mL,"[2]; 50 ppm as is, 28 Days",≧6 Log 10 Bacteria/mL
same,Log 10 Anaerobic Acid Producing Bacteria/mL,"[2]; 50 ppm as is, 35 Days",≧6 Log 10 Bacteria/mL
same,Log 10 Anaerobic Acid Producing Bacteria/mL,"[2]; 50 ppm as is, 42 Days",≧6 Log 10 Bacteria/mL
same,Log 10 Anaerobic Acid Producing Bacteria/mL,"[2]; 50 ppm as is, 58 Days",≧6 Log 10 Bacteria/mL
same,Log 10 Anaerobic Acid Producing Bacteria/mL,"[2]; 50 ppm as is, 90 Days",≧6 Log 10 Bacteria/mL
same,Log 10 Anaerobic Acid Producing Bacteria/mL,"[2]; 100 ppm as is, 7 Days",5 Log 10 Bacteria/mL
same,Log 10 Anaerobic Acid Producing Bacteria/mL,"[2]; 100 ppm as is, 14 Days",5 Log 10 Bacteria/mL
same,Log 10 Anaerobic Acid Producing Bacteria/mL,"[2]; 100 ppm as is, 21 Days",≧6 Log 10 Bacteria/mL
same,Log 10 Anaerobic Acid Producing Bacteria/mL,"[2]; 100 ppm as is, 28 Days",≧6 Log 10 Bacteria/mL
same,Log 10 Anaerobic Acid Producing Bacteria/mL,"[2]; 100 ppm as is, 35 Days",≧6 Log 10 Bacteria/mL
same,Log 10 Anaerobic Acid Producing Bacteria/mL,"[2]; 100 ppm as is, 42 Days",≧6 Log 10 Bacteria/mL
same,Log 10 Anaerobic Acid Producing Bacteria/mL,"[2]; 100 ppm as is, 58 Days",≧6 Log 10 Bacteria/mL
same,Log 10 Anaerobic Acid Producing Bacteria/mL,"[2]; 100 ppm as is, 90 Days",≧5 Log 10 Bacteria/mL
same,Log 10 Anaerobic Acid Producing Bacteria/mL,"[2]; 200 ppm as is, 7 Days",1 Log 10 Bacteria/mL
same,Log 10 Anaerobic Acid Producing Bacteria/mL,"[2]; 200 ppm as is, 14 Days",0 Log 10 Bacteria/mL
same,Log 10 Anaerobic Acid Producing Bacteria/mL,"[2]; 200 ppm as is, 21 Days",≧6 Log 10 Bacteria/mL
same,Log 10 Anaerobic Acid Producing Bacteria/mL,"[2]; 200 ppm as is, 28 Days",≧6 Log 10 Bacteria/mL
same,Log 10 Anaerobic Acid Producing Bacteria/mL,"[2]; 200 ppm as is, 35 Days",≧6 Log 10 Bacteria/mL
same,Log 10 Anaerobic Acid Producing Bacteria/mL,"[2]; 200 ppm as is, 42 Days",≧6 Log 10 Bacteria/mL
same,Log 10 Anaerobic Acid Producing Bacteria/mL,"[2]; 200 ppm as is, 58 Days",≧6 Log 10 Bacteria/mL
same,Log 10 Anaerobic Acid Producing Bacteria/mL,"[2]; 200 ppm as is, 90 Days",≧6 Log 10 Bacteria/mL
same,Log 10 Anaerobic Acid Producing Bacteria/mL,[2]; [3],0 Log 10 Bacteria/mL
same,Log 10 Anaerobic Acid Producing Bacteria/mL,[2]; [4],0 Log 10 Bacteria/mL
same,Log 10 Anaerobic Acid Producing Bacteria/mL,[2]; [5],4 Log 10 Bacteria/mL
same,Log 10 Anaerobic Acid Producing Bacteria/mL,[2]; [6],3 Log 10 Bacteria/mL
same,Log 10 Anaerobic Acid Producing Bacteria/mL,[2]; [7],4 Log 10 Bacteria/mL
same,Log 10 Anaerobic Acid Producing Bacteria/mL,[2]; [8],3 Log 10 Bacteria/mL
same,Log 10 Anaerobic Acid Producing Bacteria/mL,[2]; [9],≧6 Log 10 Bacteria/mL
same,Log 10 Anaerobic Acid Producing Bacteria/mL,[2]; [10],≧6 Log 10 Bacteria/mL
same,control of AB in frac pond water (summary in words),[2]; [11],lost all control of SRB and AB from 1 to 21 days contact time; also recorded: failed after challenging once at 14 days contact time
